Results: PubChem BioAssay (NCI)
Values joined by “and” are separate entries in the source; they are usually repeats but may differ in a detail not shown here. Equal entries are not always repeated.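 A five-concentration, 48-hour dose response in 96-well plates underlies each endpoint, interpolated linearly between surrounding concentrations. GI50: concentration for 50% inhibition of growth. TGI is the concentration that stops growth completely.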

Experiments:
Assay in all cases: NCI-60 cell line screen, 48 h
[1] = test system: A549 NSCLC
[2] = test system: IGROV1 ovarian
[3] = test system: LOX IMVI melanoma
[4] = test system: MOLT-4 leukemia
[5] = test system: NCI-H23 lung
[6] = test system: NCI-H522 lung
[7] = test system: SK-MEL-2 melanoma
[8] = test system: SK-OV-3 ovarian
[9] = test system: U251 CNS
[10] = test system: UO-31 renal

SMILES | GI50 [1] | TGI [1] | GI50 [2] | TGI [2] | GI50 [3] | TGI [3] | GI50 [4] | TGI [4] | GI50 [5] | TGI [5] | GI50 [6] | TGI [6] | GI50 [7] | TGI [7] | GI50 [8] | TGI [8] | GI50 [9] | TGI [9] | GI50 [10] | TGI [10]
COc1cc(Cl)cc(-c2nn(C(=O)NCCN3CCOCC3)cc2-c2ccncc2)c1 | 9.97 µM | > 100 µM | 4.98 µM | > 100 µM | 5.14 µM | 69.9 µM | 3.78 µM | > 100 µM | 11.5 µM | > 100 µM | 3.38 µM | > 100 µM | 10.9 µM | 44.3 µM | 3.75 µM | 19.7 µM | 4.7 µM | > 100 µM | 3.85 µM | 64.6 µM
CCN1C(=O)N(CC)C2C1NN=c1s/c(=C\c3cccnc3)c(=O)n12 (stereo unspecified) | 0.733 µM | > 100 µM | 0.843 µM | > 100 µM | 0.543 µM | > 100 µM | 0.596 µM | > 100 µM | 0.689 µM | > 100 µM | 0.474 µM | > 100 µM | > 100 µM | > 100 µM | 2.02 µM | > 100 µM | 0.612 µM | > 100 µM | 1.53 µM | > 100 µM
COc1c(CCC[P+](c2ccccc2)(c2ccccc2)c2ccccc2)cc2c(c1OC)OCO2 | 3.7 µM | 38.1 µM | 1.02 µM | 10.7 µM | 2.4 µM | 10.4 µM | 3.12 µM | 16.3 µM | 2.19 µM | 10.3 µM | 1.75 µM | 10.8 µM | 3.03 µM | 14.1 µM | 2.56 µM | 8.45 µM | 1.77 µM | 19.7 µM | 11.9 µM | 47.2 µM
c1cc(-c2cn3ccsc3n2)ccn1 |  | > 100 µM |  | > 100 µM |  | > 100 µM |  | > 100 µM |  | > 100 µM |  | > 100 µM |  | > 100 µM |  | > 100 µM |  | > 100 µM |  | > 100 µM
CC1SC(c2c(Cl)cccc2Cl)N(NC(=O)c2[nH]c3ccc(F)cc3c2-c2ccccc2)C1=O (stereo unspecified) | 1.68 µM | 3.16 µM | 2.37 µM | 7.9 µM | 1.71 µM | 3.35 µM | 13.2 µM | 64.7 µM | 2.73 µM | 10.1 µM | 1.87 µM | 5.83 µM | 3.29 µM | 15.6 µM | 1.95 µM | 4.2 µM | 1.78 µM | 3.51 µM | 2.13 µM | 8.61 µM
COc1cc(C2c3cc4c(cc3[C@@H](Nc3ccc(C#N)cc3)C3COC(=O)[C@H]23)OCO4)cc(OC)c1O (stereo partly specified) | 0.107 µM | 6.1 µM and 2.35 µM and 2.96 µM | 1.76 µM | 31.1 µM and 8.65 µM |  | 9.52 µM | 0.0307 µM |  | 0.753 µM and 0.532 µM | 2.53 µM and 3.67 µM and 4.36 µM | 1.44 µM and 1.55 µM | 7.51 µM and 4.48 µM and 7.4 µM | 1.77 µM and 8.87 µM |  | 3.29 µM and 1.34 µM | 48.8 µM and 11.3 µM and > 100 µM | 0.879 µM |  | 0.26 µM and 0.968 µM | 7.14 µM and 5.42 µM and 2.64 µM
O=C(CC(=O)CC(O)(C(F)(F)F)C(F)(F)F)CC(O)(C(F)(F)F)C(F)(F)F |  | > 10 µM |  | > 10 µM |  | > 10 µM |  | > 10 µM |  | > 10 µM |  | > 10 µM |  | > 10 µM |  | > 10 µM |  | > 10 µM |  | > 10 µM
Cc1ccc2c(ccc3c[n+]4c5ccccc5ccc4n32)c1 | 0.663 µM | 13.7 µM | 1.52 µM | 18.6 µM | 1.32 µM | 3.25 µM | 1.65 µM | 9.65 µM | 0.606 µM | 3.51 µM | 1.09 µM | 3.8 µM | 1.64 µM | 3.9 µM | 1.76 µM | 6.94 µM | 0.361 µM | 2.12 µM | 5.42 µM | 54 µM
